Experimental data reported in PubChem BioAssay AID1576 (EPA DSSTox, 2009).
Activity calls are given as the source filed them.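 Rule for the calls: active = chemicals shown by follow-up kinetic tests to compete for rat estrogen receptor sites, with a measured inhibition constant; inconclusive = some binding seen but constant unmeasurable owing to poor solubility; inactive = no binding up to top dose, or binding unconfirmed.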

molecular target: Estrogen receptor (Rattus norvegicus) (UniProt P06211); assay: DSSTox (KIERBL) EPA Estrogen Receptor Ki Binding Study (Laws et al.) Database; details: Rat uterine cytosol ER, 3H-estradiol competitive binding
Sequence (P06211 whole entry, looked up): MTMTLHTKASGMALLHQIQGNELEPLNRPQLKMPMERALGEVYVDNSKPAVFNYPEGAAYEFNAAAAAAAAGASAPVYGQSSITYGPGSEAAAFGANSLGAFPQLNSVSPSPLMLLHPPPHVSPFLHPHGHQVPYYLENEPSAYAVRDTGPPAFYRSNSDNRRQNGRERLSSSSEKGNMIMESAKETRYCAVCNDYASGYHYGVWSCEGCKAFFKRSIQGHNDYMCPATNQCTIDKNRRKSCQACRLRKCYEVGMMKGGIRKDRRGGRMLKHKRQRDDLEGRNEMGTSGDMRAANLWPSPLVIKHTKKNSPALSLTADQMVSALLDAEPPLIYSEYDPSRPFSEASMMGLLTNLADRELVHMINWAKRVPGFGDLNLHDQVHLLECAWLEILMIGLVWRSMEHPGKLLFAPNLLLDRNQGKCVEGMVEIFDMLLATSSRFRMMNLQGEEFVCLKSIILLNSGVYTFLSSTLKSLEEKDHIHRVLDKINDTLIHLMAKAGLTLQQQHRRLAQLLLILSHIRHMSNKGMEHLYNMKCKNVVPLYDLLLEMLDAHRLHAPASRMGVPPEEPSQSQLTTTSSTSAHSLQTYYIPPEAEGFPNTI
Method: This study was conducted by EPA researchers to evaluate the validity of the rat uterine cytosolic (RUC) estrogen receptor (ER) competitive binding assay for use in the Endocrine Disruption Screening Program (EDSP). The assay measures the ability of radiolabeled 17-beta-estradiol (3H-E2) to bind with RUC ER in the presence of increasing concentrations of a test chemical. The goal is to employ this in vitro assay as a 1st tier screening tool for assessing the potential of structurally diverse environmental chemicals to bind to the ER, as well as to support research efforts to develop computational models to predict ER binding. A distinguishing feature of the present study was the use of secondary experimental analysis of binding curves and determination of Ki values to confirm that measured IC50 values corresponded to true positive results. The study concluded that a number of experimental conditions can confound interpretation of IC50 values obtained from the RUC ER-binding assay data and lead to false positive results. In particular, some chemical treatments likely alter the stability of the assay by changing the buffer pH, denaturing ER, or disrupting the ER binding kinetics. […] The chemicals used in this study were selected as part of a validation test for two Quantitative Structure-Activity Relationship (QSAR) models designed to predict ER binding [Fed. Reg. 67(250), 79618, Dec. 30, 2002]. Several hundred chemicals were initially screened, including approximately 100 chemicals selected from among the High Production Volume (HPV) chemicals included in EPA's Toxic Substances Control Act (TSCA) inventory that were predicted to be positive for ER binding, with the rest selected at random from the TSCA inventory. All chemicals were initially tested in ER competitive binding assays by Battelle Pacific Northwest Laboratories, Richland, Washington [EPA Contract Number 68-W-99-033, Task 6]. Approximately 50 chemicals produced binding curves that: (1) strongly implied competitive inhibition of ER binding, or (2) produced partial curves or irregular (non-sigmoid) binding curves. These chemicals were further evaluated in an ER competitive binding assay with secondary analysis to confirm true competitive inhibition and to determine an experimental Ki [U.S. EPA Contract 3D-5967-NTEX]. The results of RUC ER screening for these 50 structurally diverse chemicals, for which secondary confirmatory analyses were performed, were published in the Main Citation (Laws et al., 2006, Tox. Sci. 94:46-56). The remaining 228 chemicals were designated as non-binders based on initial screening studies.
The DSSTox KIERBL data files include all published IC50 and Ki experimental results for the 50 chemicals included in the Main Citation (Laws et al., 2006) (denoted Group 1), as well as previously unpublished results for an additional 228 structually diverse TSCA chemicals for which no ER binding was observed (denoted Group 2. IC50 values were determined for 32 compounds in Group 1 as the concentration of a test chemical that inhibits the maximal specific binding of 0.33 nM radiolabeled (3H) 17-beta-estradiol (E2) to rat uterine cytosolic (RUC) estrogen receptor (ER) by 50%. Confirmation of binding status was accomplished by secondary analysis using Lineweaver-Burk plots and slope replots to determine true competitive inhibition and an experimental Ki value. Ki is the inhibition constant for the test chemical, i.e., the concentration of the test chemical that will bind to half the binding sites at equilibrium (displacing half of the probe-bound receptors), in the absence of radioligand or other competitors. Ki reported as Mean +/- Standard Error from n=2 experiments (see StandardError_Ki_n2) and is determined from Lineweaver-Burk plots over the tested dose range (TestedRange_microM). For more information see BindingCurve_Group and BindingCurve_Details. […]

| SMILES | outcome |
| --- | --- |
| CCOC(=O)CCC(=O)OCC | inactive; none |
| O=Cc1ccccc1[N+](=O)[O-] | inactive; none |
| NC(=O)c1ccc(N)cc1 | inactive; none |
| O=C(Cl)c1ccccc1 | inactive; none |
| CCCCCCCCOc1ccc(C(=O)c2ccccc2)c(O)c1 | inactive; none |
| COc1cc(S(=O)(=O)O)c(C)cc1N=Nc1c(O)ccc2cc(S(=O)(=O)O)ccc12 | inactive; none |
| C=CC(=O)OCC(C)C | inactive; none |
| Cc1cc[cH-]c1.[C-]#[O+].[C-]#[O+].[C-]#[O+].[Mn] | inactive; none |
| COCCOC(=O)CC#N | inactive; none |
| OC1OCCOC1O (stereo unspecified) | inactive; none |
| Oc1ccc2ccccc2c1N=Nc1ccccc1 | inactive; none |
| CNC(=O)Oc1ccccc1OC(C)C | inactive; none |
| C=C[Si](C)(C)O[Si](C)(C)C=C | inactive; none |
| O=C(O)c1cc(O)c2ccccc2c1O | inactive; incomplete |
| ClC1(Cl)C2(Cl)C3(Cl)C4(Cl)C(Cl)(Cl)C5(Cl)C3(Cl)C1(Cl)C5(Cl)C24Cl (stereo unspecified) | inactive; none |
| CCCCCCCCCC#N | inactive; none |
| C=CS(=O)(=O)O | inactive; none |
| O=C(O)c1ccccc1Br | inactive; none |
| C[Si](O)(O)O | inactive; none |
| Nc1ccc(/C=C/c2ccc(N)cc2S(=O)(=O)O)c(S(=O)(=O)O)c1 | inactive; none |
| CCN(CC)c1ccc(C(=C2C=CC(=[N+](CC)CC)C=C2)c2ccc(N(CC)CC)cc2)cc1 | inactive; none |
| CCCCCCCCCCCCCCCCCCCCCCCCO | inactive; none |

| SMILES | outcome |
| --- | --- |
| CCCCNCCCCCCNCCCC | inactive; none |
| CCN(CC)c1ccc(N)c(C)c1 | inactive; none |
| CCC(CO)(CO)CO | inactive; none |
| OC1CCCCC1 | inactive; none |
| CC(C)CCCCCOC(=O)CS | inactive; none |
| OCC1CC2C=CC1C2 (stereo unspecified) | inactive; none |
| C=C(C)C(=O)OCCOCC | inactive; none |
| CC(C)(c1cc(Br)c(OCCO)c(Br)c1)c1cc(Br)c(OCCO)c(Br)c1 | inactive; none |
| COc1cc(Cl)c(OC)cc1Cl | inactive; none |
| CCSC(C)CC1CC(=O)C(/C(CC)=N/OC/C=C/Cl)=C(O)C1 (stereo unspecified) | inactive; none |
| COCCO | inactive; none |
| CCN=C1C=CC(=C(c2ccc(N(CC)CC)cc2)c2ccc(N(CC)CC)cc2)c2ccccc21 | inactive; none |
| CCCCCCCC[Si](Cl)(Cl)Cl | inactive; none |
| O=C(Cl)c1ccccc1C(=O)Cl | inactive; none |
| CC(C)N | inactive; none |
| CO[Si](CCCNCCC[Si](OC)(OC)OC)(OC)OC | inactive; none |
| COc1nc(C)nc(NC(=O)NS(=O)(=O)c2ccccc2Cl)n1 | inactive; none |
| CCN(CC)c1nc(C)cc(OP(=S)(OC)OC)n1 | inactive; none |
| CN(C)c1ccc(C(=C2C=CC(=Nc3ccccc3)c3ccccc32)c2ccc(N(C)C)cc2)cc1 | inactive; none |
| c1ccc(CNc2ncnc3c2ncn3C2CCCCO2)cc1 (stereo unspecified) | inactive; none |
| COC(=O)CCCCC(=O)OC | inactive; none |
| CN(C)Cc1cc(CN(C)C)c(O)c(CN(C)C)c1 | inactive; none |

| SMILES | outcome |
| --- | --- |
| CCCCCCCCCCCCCCCCCCN=C=O | inactive; none |
| CCOc1ccc(NC(C)=O)cc1 | inactive; none |
| c1ccsc1 | inactive; none |
| COc1ccccc1NC(=O)c1cc2ccccc2cc1O | inactive; none |
| CC(C)(C)c1cc(Cc2cc(C(C)(C)C)c(O)c(C(C)(C)C)c2)cc(C(C)(C)C)c1O | inactive; none |
| CC(C)CC(=O)O | inactive; none |
| Cc1ccc([N+](=O)[O-])c(C)c1 | inactive; none |
| O=C(OCc1ccccc1)c1ccccc1O | inactive; incomplete |
| O=C(O)c1ccc2cc(O)ccc2c1 | inactive; none |
| NCCCCCCNCCCCCCN | inactive; none |
| ClCC1OCCO1 | inactive; none |
| C(=NC1CCCCC1)=NC1CCCCC1 | inactive; none |
| COc1cc([N+](=O)[O-])ccc1N | inactive; none |
| CC(C)(C)c1cc(C(C)(C)c2ccc(O)c(C(C)(C)C)c2)ccc1O | inactive; incomplete |
| O=C(Nc1ccc(Cl)cc1)Nc1ccc(Cl)c(Cl)c1 | inactive; none |
| CCCCCCCCCCCCCC(=O)OCCCC | inactive; none |
| C[Si]1(C)N[Si](C)(C)N[Si](C)(C)N1 | inactive; incomplete |
| NNC(=O)NN | inactive; none |
| O=C=NCc1cccc(CN=C=O)c1 | inactive; none |
| O=S(=O)(O)c1ccccc1Nc1ccc(C(=C2C=CC(=Nc3ccccc3)C=C2)c2ccc(Nc3ccccc3)cc2)cc1 | inactive; none |
| COC(=O)c1ccccc1S(=O)(=O)NC(=O)N(C)c1nc(C)nc(OC)n1 | inactive; none |
| Fc1cccc(Cl)c1CCl | inactive; none |

| SMILES | outcome |
| --- | --- |
| OCCOc1ccc(OCCO)cc1 | inactive; none |
| CCC[CH2][Sn]([CH2]CCC)([CH2]CCC)[O][Sn]([CH2]CCC)([CH2]CCC)[CH2]CCC | inactive; none |
| N#CCCSCCC#N | inactive; none |
| CN1CSC(=S)N(C)C1 | inactive; none |
| O=C(OCc1ccccc1)C(=O)OCc1ccccc1 | inactive; none |
| CC(C)COC(=O)C(C)C | inactive; none |
| C=CC(=O)OCCC(F)(F)C(F)(F)C(F)(F)C(F)(F)C(F)(F)C(F)(F)C(F)(F)C(F)(F)C(F)(F)C(F)(F)F | inactive; incomplete |
| O=C1CCC(=O)N1Br | inactive; none |
| COC(=O)c1cccc(C)c1S(=O)(=O)NC(=O)Nc1nc(OCC(F)(F)F)nc(N(C)C)n1 | inactive; none |
| Cc1cccc[n+]1[O-] | inactive; none |
| CC(Cl)Cl | inactive; none |
| CCCCN(CCCC)C(=S)[S-].CCCCN(CCCC)C(=S)[S-].[Ni+2] | inactive; none |
| CCCCCCCCCCCCCCCCCCOC(=O)CCc1cc(C(C)(C)C)c(O)c(C(C)(C)C)c1 | inactive; none |
| COCOC | inactive; none |
| CCOC(=O)c1ccccc1C(=O)OCC | inactive; none |
| OCCOCCOCCO | inactive; none |
| O=C1OS(=O)(=O)c2ccccc21 | inactive; none |
| O=C(O[C@@H](C(=O)O)[C@@H](OC(=O)c1ccccc1)C(=O)O)c1ccccc1 | inactive; none |
| C=C(C)c1ccc(C(=C)C)cc1 | inactive; none |
| COC(=O)C(C)O (stereo unspecified) | inactive; none |
| O=C(O)C1CCC(C(=O)O)CC1 (stereo unspecified) | inactive; none |
| CC(C)c1ccc2cc(C(C)C)ccc2c1 | inactive; none |

same assay, conditions: Rat uterine cytosol ER, 3H-estradiol competitive binding; TestedRange_microM: 1-10

| SMILES | outcome |
| --- | --- |
| CCCCCCCCCCCCCCN(C)C | inactive; complete |

same assay, conditions: Rat uterine cytosol ER, 3H-estradiol competitive binding; TestedRange_microM: 2.5-7.5

| SMILES | Potency |
| --- | --- |
| Oc1ccc(C(c2ccc(O)cc2)(C(F)(F)F)C(F)(F)F)cc1 | 1.9 µM |

same assay, conditions: Rat uterine cytosol ER, 3H-estradiol competitive binding; TestedRange_microM: 10-100

| SMILES | Potency |
| --- | --- |
| O=C(c1ccccc1)c1ccc(O)c(O)c1O | 103 µM |
| COC(OC)(C(=O)c1ccccc1)c1ccccc1 | 136 µM |

same assay, conditions: Rat uterine cytosol ER, 3H-estradiol competitive binding; TestedRange_microM: 25-75

| SMILES | Potency |
| --- | --- |
| O=C(OCc1ccccc1)c1ccc(O)cc1 | 34.2 µM |
| CC(C)(c1ccc(O)cc1)c1ccc(O)cc1 | 24.8 µM |

same assay, conditions: Rat uterine cytosol ER, 3H-estradiol competitive binding; TestedRange_microM: 30-200

| SMILES | Potency | outcome |
| --- | --- | --- |
| Cc1cc(O)ccc1Cl | 373 µM | – |
| O=C(Nc1ccc(Cl)c(Cl)c1)Nc1cc(Cl)ccc1Oc1ccc(Cl)cc1S(=O)(=O)O | – | inactive; partial |
